Numbers after ± are expanded uncertainties.
Columns and labels:
[1] = 293.15 K; 101.33 kPa; Liquid; Vibrating tube method
[2] = refractive index (Na D-line) (dimensionless); details: 293.15 K; 101.33 kPa; Liquid; Standard Abbe refractometry
[3] = wn = mass fraction of the nth substance listed; details: 293.15 K; 101.3 kPa; Liquid; Vibrating tube method; w1 = 0.85
[4] = refractive index (Na D-line) (dimensionless); wn = mass fraction of the nth substance listed; details: 293.15 K; 101.3 kPa; Liquid; Standard Abbe refractometry; w1 = 0.85

Structure (SMILES)	mass density [1]	refractive index [2]	mass density [3]	refractive index [4]
CC(=O)OC1CCCCC1 [cyclohexyl ethanoate]	970.1 ± 1.2 kg/m3	1.4425 ± 0.0011		
CCCCCCOC(C)=O [hexyl ethanoate]	873.3 ± 1.2 kg/m3	1.4096 ± 0.0011		
O=P(O)(O)O [phosphoric acid] + O			1682.8 ± 1 kg/m3	1.4345 ± 0.001
O [water]	998.3 ± 1 kg/m3	1.333 ± 0.001		

— the NIST ThermoML archive (doi:10.1016/j.jct.2016.03.025)
